{"source": "patent US20170296460A1", "about": "“METHOD OF IMPROVING THE APPEARANCE OF PERIORBITAL DYSCHROMIA” (The Procter & Gamble Company, priority 2016, published 2017)", "tested_on": "B16-F1 mouse melanoma cell line", "assay": "B16 melanin synthesis inhibition assay", "assay_type": "cell-based", "conditions": "B16-F1 cells, OD 410 nm", "experimental": "In this example, a commercially available B16-F1 mouse melanoma cell line from American Tissue Culture Collection, Virginia, USA was employed in a conventional melanin synthesis inhibition assay. The cell culture medium used in the assay is 500 mL of Dulbecco's Modified Eagle's Medium (DMEM), 50 mL Fetal Bovine Serum (FBS), and 5 mL of penicillin-streptomycin liquid. B16-F1 cells that are cultured in this medium and grown to greater than 90% confluency will synthesize melanin. While not intending to be bound by any theory, it is hypothesized that the melanin synthesis is stimulated by the culture medium and/or stress induced by growth to a high confluency. […] Equipment used in the assay include a CO2 incubator, such as a Forma Series Model 3110 by Therma Scientific, Massachusetts, USA; a hemocytometer, such as a Bright Line model by Hauser Scientific, Pennsylvania, USA; and a UV-Visible Spectrum Plate Reader, such as a SpectraMax250 from Molecular Devices, California, USA. […] Day 3: The cells from the T-150 flask are trypsinized, and the concentration of cells is determined using the hemacytometer. […] Read the 96 well plate using the UV-Vis Plate Reader at 410 nm to optically measure the amount of melanin produced between wells that are treated with the pumpkin seed extract and control wells that are not. […] The concentration of test agent needed to provide the IC 50 is recorded.", "data": [{"smiles": "Oc1ccc(OC2CCCCO2)cc1", "note": "(stereo not shown) [Deoxyarbutin]", "values": [{"measurement": "Concentration Needed for IC 50", "result": 0.008, "unit": "v/v"}]}]}
